From paper PMC10607160 (International Journal of Molecular Sciences, 2023)
Read-outs that look alike come from different tables or passages of the source.

Experiments:
[1] = target: E. coli Trx1 / E. coli TrxR (thioredoxin system) (Escherichia coli, UniProt P0AA25); assay: Disulfide bond reduction assay by EcoTrx1 (NADPH absorbance at 340 nm); assay type: biochemical; settings: for Absorbance Asample1 / Absorbance Asample2 / Absorbance Average1, 2: A340, with TrxR
Procedure: The assay employed was based on changes in the absorbance at 340 nm from the oxidation of NADPH using a modified version of the protocol laid out in [90]. Briefly, the decrease in A340 was measured in 96-well plates containing 100 μL of 200 mM potassium phosphate pH 7.4, 1 mM EDTA, 0.1 mg/mL BSA, 200 μM NADPH, 2 μM E. coli Trx1 and 10 nM E. coli TrxR for 5 min at 25 °C with insulin at a final concentration of 0.067 mM (0.2 mM disulfides) (see Table S2). The reduction of con7 was measured at a final concentration of 0.2 mM (see Table S3). Blanks were samples without EcoTrxR.
Figure 4 Reduction of (A) con7 and (B) insulin by EcoTrx1. The assay mixture contains 200 mM potassium phosphate pH 7.4, 1 mM EDTA, 0.1 mg/mL BSA, 200 μM NADPH, 2 μM Escherichia coli Trx1, 10 nM E. coli TrxR, (A) 0.2 mM con7 or (B) 0.067 mM (0.2 mM disulfides) insulin. The reaction was carried out at 25 °C by monitoring the decrease of NADPH absorbance at 340 nm for (A) con7 in the absence ( [drawing 1] ) or presence of TrxR ( [drawing 2] ) and (B) insulin in the absence ( [drawing 3] ) or presence of TrxR ( [drawing 4] ).

human GnRHR I = target: T1, human GnRHR I (Homo sapiens, UniProt P30968); assay: Competitive radioligand binding (125I-DTyr6-His5-GnRH) on membranes from HEK 293 cells stably expressing GnRHR I
T1 construct: expressed in transfected cells
T1 sequence (P30968 1-328): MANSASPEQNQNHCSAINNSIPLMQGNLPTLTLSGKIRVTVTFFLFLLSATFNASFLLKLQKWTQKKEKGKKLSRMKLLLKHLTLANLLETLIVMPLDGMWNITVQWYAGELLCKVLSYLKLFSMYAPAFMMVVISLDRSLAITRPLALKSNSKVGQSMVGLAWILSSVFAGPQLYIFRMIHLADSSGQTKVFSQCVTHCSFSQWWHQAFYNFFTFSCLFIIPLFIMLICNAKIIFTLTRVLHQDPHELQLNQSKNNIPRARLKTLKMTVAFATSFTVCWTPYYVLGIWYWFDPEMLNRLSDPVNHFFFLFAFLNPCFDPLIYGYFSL

[2] = competition with 125I-DTyr6-His5-GnRH, HEK 293 membranes, 4 °C 16-19 h, one-site model, read-out: apparent binding affinity (IC50)

E. coli Trx1 / E. coli TrxR (thioredoxin system), sequence (P0AA25 2-109): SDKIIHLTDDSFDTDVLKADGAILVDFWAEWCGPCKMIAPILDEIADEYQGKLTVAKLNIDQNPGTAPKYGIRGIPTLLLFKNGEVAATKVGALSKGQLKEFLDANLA

## insulin
[1]; 0 sec
  Absorbance Asample1: 0.236
  Absorbance Asample2: 0.257
  Absorbance Average1, 2: 0.247
[1]; 9 sec
  Absorbance Asample1: 0.236
  Absorbance Asample2: 0.257
  Absorbance Average1, 2: 0.247
[1]; 18 sec
  Absorbance Asample1: 0.236
  Absorbance Asample2: 0.257
  Absorbance Average1, 2: 0.247
[1]; 27 sec
  Absorbance Asample1: 0.235
  Absorbance Asample2: 0.257
  Absorbance Average1, 2: 0.246
[1]; 36 sec
  Absorbance Asample1: 0.236
  Absorbance Asample2: 0.256
  Absorbance Average1, 2: 0.246
[1]; 45 sec
  Absorbance Asample1: 0.235
  Absorbance Asample2: 0.256
  Absorbance Average1, 2: 0.246
[1]; 54 sec
  Absorbance Asample1: 0.235
  Absorbance Asample2: 0.255
  Absorbance Average1, 2: 0.245
[1]; 63 sec
  Absorbance Asample1: 0.235
  Absorbance Asample2: 0.256
  Absorbance Average1, 2: 0.246
[1]; 72 sec
  Absorbance Asample1: 0.235
  Absorbance Asample2: 0.255
  Absorbance Average1, 2: 0.245
[1]; 81 sec
  Absorbance Asample1: 0.233
  Absorbance Asample2: 0.254
  Absorbance Average1, 2: 0.244
[1]; 90 sec
  Absorbance Asample1: 0.235
  Absorbance Asample2: 0.255
  Absorbance Average1, 2: 0.245
[1]; 99 sec
  Absorbance Asample1: 0.234
  Absorbance Asample2: 0.254
  Absorbance Average1, 2: 0.244
[1]; 108 sec
  Absorbance Asample1: 0.234
  Absorbance Asample2: 0.255
  Absorbance Average1, 2: 0.245
[1]; 117 sec
  Absorbance Asample1: 0.235
  Absorbance Asample2: 0.253
  Absorbance Average1, 2: 0.244
[1]; 126 sec
  Absorbance Asample1: 0.234
  Absorbance Asample2: 0.253
  Absorbance Average1, 2: 0.244
[1]; 135 sec
  Absorbance Asample1: 0.235
  Absorbance Asample2: 0.253
  Absorbance Average1, 2: 0.244
[1]; 144 sec
  Absorbance Asample1: 0.234
  Absorbance Asample2: 0.253
  Absorbance Average1, 2: 0.244
[1]; 153 sec
  Absorbance Asample1: 0.232
  Absorbance Asample2: 0.252
  Absorbance Average1, 2: 0.242
[1]; 162 sec
  Absorbance Asample1: 0.233
  Absorbance Asample2: 0.253
  Absorbance Average1, 2: 0.243
[1]; 171 sec
  Absorbance Asample1: 0.233
  Absorbance Asample2: 0.252
  Absorbance Average1, 2: 0.243
[1]; 180 sec
  Absorbance Asample1: 0.233
  Absorbance Asample2: 0.252
  Absorbance Average1, 2: 0.243
[1]; 189 sec
  Absorbance Asample1: 0.232
  Absorbance Asample2: 0.252
  Absorbance Average1, 2: 0.242
[1]; 198 sec
  Absorbance Asample1: 0.233
  Absorbance Asample2: 0.252
  Absorbance Average1, 2: 0.243
[1]; 207 sec
  Absorbance Asample1: 0.232
  Absorbance Asample2: 0.252
  Absorbance Average1, 2: 0.242
[1]; 216 sec
  Absorbance Asample1: 0.233
  Absorbance Asample2: 0.252
  Absorbance Average1, 2: 0.243
[1]; 225 sec
  Absorbance Asample1: 0.232
  Absorbance Asample2: 0.252
  Absorbance Average1, 2: 0.242
[1]; 234 sec
  Absorbance Asample1: 0.232
  Absorbance Asample2: 0.252
  Absorbance Average1, 2: 0.242
[1]; 243 sec
  Absorbance Asample1: 0.231
  Absorbance Asample2: 0.251
  Absorbance Average1, 2: 0.241
[1]; 252 sec
  Absorbance Asample1: 0.231
  Absorbance Asample2: 0.251
  Absorbance Average1, 2: 0.241
[1]; 261 sec
  Absorbance Asample1: 0.230
  Absorbance Asample2: 0.250
  Absorbance Average1, 2: 0.240
[1]; 270 sec
  Absorbance Asample1: 0.230
  Absorbance Asample2: 0.250
  Absorbance Average1, 2: 0.240
[1]; 279 sec
  Absorbance Asample1: 0.231
  Absorbance Asample2: 0.251
  Absorbance Average1, 2: 0.241
[1]; 288 sec
  Absorbance Asample1: 0.230
  Absorbance Asample2: 0.250
  Absorbance Average1, 2: 0.240
[1]; 297 sec
  Absorbance Asample1: 0.229
  Absorbance Asample2: 0.250
  Absorbance Average1, 2: 0.240
[1]; decrease of NADPH absorbance over time in samples containing TrxR
  reduction of disulfide bond by the thioredoxin system: successful

## CCNC(=O)[C@@H]1CCCN1C(=O)[C@H](CCCNC(=N)N)NC(=O)[C@H](CC(C)C)NC(=O)[C@@H](CS)NC(=O)[C@H](Cc1ccc(O)cc1)NC(=O)[C@H](CO)NC(=O)[C@H](Cc1c[nH]c2ccccc12)NC(=O)[C@H](Cc1c[nH]cn1)NC(=O)[C@@H]1CCC(=O)N1 [analogue 2, [DCys^6, Pro^9-NHEt]GnRH]
Human GnRHR I; [2]
  IC50: 0.7 nM

## CCNC(=O)[C@@H]1CCCN1C(=O)[C@H](CCCNC(=N)N)NC(=O)[C@H](CC(C)C)NC(=O)[C@@H](CCCCN)NC(=O)[C@H](Cc1ccc(O)cc1)NC(=O)[C@H](CO)NC(=O)[C@H](Cc1c[nH]c2ccccc12)NC(=O)[C@H](Cc1c[nH]cn1)NC(=O)[C@@H]1CCC(=O)N1 [analogue 4, (DLys^6, Pro^9-NHEt)GnRH]
Human GnRHR I; [2]
  IC50: 2.5 nM

## O=C1c2c(O)ccc(O)c2C(=O)c2c(NCCNCCO)ccc(NCCNCCO)c21 [mitoxantrone, reference compound]
Human GnRHR I; competition with 125I-DTyr6-His5-GnRH, HEK 293 membranes, 4 °C 16-19 h, one-site model
  apparent binding affinity (IC50): did not bind
Human GnRHR I; [2]
  IC50: > 1000 nM

## CCNC(=O)[C@@H]1CCCN1C(=O)[C@H](CCCNC(=N)N)NC(=O)[C@H](CC(C)C)NC(=O)[C@@H](CSSCCC(=O)OCCNCCNc1ccc(NCCNCCO)c2c1C(=O)c1c(O)ccc(O)c1C2=O)NC(=O)[C@H](Cc1ccc(O)cc1)NC(=O)[C@H](CO)NC(=O)[C@H](Cc1c[nH]c2ccccc12)NC(=O)[C@H](Cc1c[nH]cn1)NC(=O)[C@@H]1CCC(=O)N1 [con3]
Human GnRHR I
  IC50: 0.07 nM

## CCNC(=O)[C@@H]1CCCN1C(=O)[C@H](CCCNC(=N)N)NC(=O)[C@H](CC(C)C)NC(=O)[C@@H](CCCCNC(=O)CCCCCNC(=O)CCSSCC(=O)NCCCCNc1ccc(O)c2c1C(=O)c1ccccc1C2=O)NC(=O)[C@H](Cc1ccc(O)cc1)NC(=O)[C@H](CO)NC(=O)[C@H](Cc1c[nH]c2ccccc12)NC(=O)[C@H](Cc1c[nH]cn1)NC(=O)[C@@H]1CCC(=O)N1 [con6]
Human GnRHR I; [2]
  IC50: 0.07 nM
